Data: patent US20210161918A1, “TIGECYCLINE FOR TOPICAL TREATMENT OF ROOT CANAL SPACE” (THE UNIVERSITY OF NORTH CAROLINA AT CHAPEL HILL, priority 2018, published 2021)
Marks after values point to notes of the source that are not given here.

Key:
[1] = test system: polymicrobial biofilm of E. faecalis, S. intermedius, F. nucleatum and P. gingivalis in root canals; experiment: Post-treatment CFUs in ex vivo root canals inoculated with bacterial mixture (3-week biofilm), dressed with antibiotics/hydrogel scaffolds; assay type: cell-based; settings: for samples with bacterial growth: n=15 per group; for Log10 CFUs: 1 week dressing
Excerpt: (§1) One hundred and twenty intact single rooted permanent human teeth were collected for the study. All teeth were autoclaved, then access cavities were prepeared and the canal instrumented to size 40/0.04, with saline irrigation. Teeth were autoclaved again to ensure absence of bacteria prior to bacterial inoculation. The root canals were then inoculated with the bacterial mixture, using syringe delivery, with the 30-gauge needle close to the working length. Access cavities were then sealed with a sterile sponge and Cavit (3M ESPE). All teeth were then incubated in the anaerobic chamber. The suspensions were replenished weekly for 3 weeks to allow for biofilm formation and maturation (14).

[2] = Crown color change measurement (tooth discoloration, CIE L*a*b*); design: species or system human
Excerpt: as §1
Crown color was measured as described previously (16). All color measurements were taken in a dark room inside the anaerobic chamber. The instrument was calibrated before the measurement in each group. • The mean baseline color measurements were taken prior to filling the root canal with the antibiotics (C0) and then at 1 week (C1), 2 weeks (C2), and 3 weeks (C3). The results were expressed in the CIE L*a*b* system (L* [black-white], a* [red-green] and b* [blue-yellow]). • Mean color change (ΔE) value was calculated using the following formula; […].
One-way analysis of variance (ANOVA), followed by the Tukey's HSD (with p<0.05) was used for the four microorganisms to compare: A) the MICs and MBCs among tested antibiotics, B) the difference between baseline CFUs and post-treatment CFUs for different antibiotics/scaffold formulations and, C) the changes in color among the groups.

[3] = test system: Enterococcus faecalis (ATCC 4083), Streptococcus intermedius (ATCC 31412), Fusobacterium nucleatum (ATCC 49256), Porphyromonas gingivalis (ATCC 33277); experiment: MIC and MBC by E-test; assay type: cell-based
Protocol: Four common endodontic pathogens were selected for the study: Enterococcus faecalis (ATCC 4083), Streptococcus intermedius (ATCC 31412), Fusobacterium nucleatum (ATCC 49256), and Porphyromonas gingivalis (ATCC 33277). […] Then, each microorganism was cultured in their recommended broth as follow; brain heart infusion (BHI) broth for […], Todd Hewitt broth for S. intermedius, chopped meat for F. nucleatum, and tryptic soy broth supplemented with hemin and vitamin K for P. gingivalis. […] One-way analysis of variance (ANOVA), followed by the Tukey's HSD (with p<0.05) was used for the four microorganisms to compare: A) the MICs and MBCs among tested antibiotics, B) the difference between baseline CFUs and post-treatment CFUs for different antibiotics/scaffold formulations and, C) the changes in color among the groups.

[4] = comparison among tested antibiotics, P<0.05

Structure (SMILES): CN(C)c1cc(NC(=O)CNC(C)(C)C)c(O)c2c1C[C@H]1C[C@H]3[C@H](N(C)C)C(O)=C(C(N)=O)C(=O)[C@@]3(O)C(O)=C1C2=O [Tigecycline]
- samples with bacterial growth ([1]; 0.1 mg/mL): 93.3%
- Log10 CFUs ([1]; 0.1 mg/ml in hydrogel scaffold): 3.38 ^b
- samples with bacterial growth ([1]; 1 mg/mL): 33.3%
- Log10 CFUs ([1]; 1 mg/ml in hydrogel scaffold): 0.93 ^c
- mean color change (ΔE) ([2]; 1 mg/mL, one week post-treatment): 6.9±1.9
- mean color change (ΔE) ([2]; 1 mg/ml, 2 and 3 weeks post-treatment): 8.4±2.0
- tooth discoloration ([2]; greater than 1 mg/ml to about 10 mg/mL, after applying an inner bonding within the coronal endodontic access preparation): no detectable discoloration

Structure (SMILES): Cc1ncc([N+](=O)[O-])n1CCO [metronidazole]
- inhibition zone ([3]; against any of tested microorganisms): no inhibition zone

Structure (SMILES): O=C(O)c1cn(C2CC2)c2cc(N3CCNCC3)c(F)cc2c1=O [Ciprofloxacin, ciprofloxacin]
- Minimum Bactericidal Concentration (MBC) [3, 4]: significantly higher
- Minimum Inhibitory Concentration (MIC) [3, 4]: significantly higher
